Measured values taken from the supplement of paper PMC8617591.

Key:
[1] = system: Mycobacterium tuberculosis Erdman (autoluminescent); test: GRinf, maximum normalised growth rate inhibition (three-drug combination) (unitless (-1 to 1)); higher = less effect (negative = killing)
Description: (§1)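 DiaMOND equipotent three-drug combination dose responses (10 doses, 1.5- or 2-fold spacing, centred on IC90) against autoluminescent M. tuberculosis Erdman in 8 in vitro models. Read-out is OD600, or luminescence for the intracellular and dormancy models, normalised to untreated wells. Hill-fit Einf, AUC25 and GRinf are potency metrics; FIC50 and FIC90 are total Loewe fractional inhibitory concentrations as log2 (negative = synergy).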

[2] = system: Mycobacterium tuberculosis Erdman (autoluminescent); test: total FIC50 (Loewe) at 50% inhibition, three-drug combination (log2); higher = more antagonistic
Description: as §1

[3] = system: Mycobacterium tuberculosis Erdman (autoluminescent); test: Einf, fitted maximum growth inhibition of three-drug combination (fraction); higher = stronger maximal inhibition
Description: as §1

[4] = system: Mycobacterium tuberculosis Erdman (autoluminescent); test: total FIC90 (Loewe) at 90% inhibition, three-drug combination (log2); higher = more antagonistic
Description: as §1

[5] = system: Mycobacterium tuberculosis Erdman (autoluminescent); test: AUC25, normalised area under dose response up to IC25 (three-drug combination) (fraction (0-1)); higher = more potent at low dose
Description: as §1

NNC(=O)c1ccncc1 [isoniazid] + O=[N+]([O-])c1cn2c(n1)OC[C@@H](OCc1ccc(OC(F)(F)F)cc1)C2 [pretomanid] + CO[C@H]1/C=C/O[C@@]2(C)Oc3c(C)c(O)c4c(O)c(c(/C=N/N5CCN(C)CC5)c(O)c4c3C2=O)NC(=O)/C(C)=C\C=C\[C@H](C)[C@H](O)[C@@H](C)[C@@H](O)[C@@H](C)[C@H](OC(C)=O)[C@@H]1C [rifampicin]
Conditions | AUC25, [5] | Einf, [3] | GRinf, [1] | total FIC50, [2] | total FIC90, [4]
in vitro model: acidic pH 5.7, time point: constant (~7 days, model-specific) | 0.0775 | 0.859 | -0.11 | 3.95 | –
in vitro model: acidic pH 5.7, time point: terminal (~4-5 doublings, model-specific) | 0.0694 | 0.984 | -0.197 | 3.6 | 3.63
in vitro model: intracellular J774, time point: constant = terminal | – | 0.984 | -0.312 | – | -0.077

Conditions | AUC25, [5] | Einf, [3] | GRinf, [1] | total FIC50, [2] | total FIC90, [4]
in vitro model: butyrate, time point: constant (~7 days, model-specific) | 0.0916 | 0.923 | 0.00511 | 2.61 | 0.589
in vitro model: butyrate, time point: terminal (~4-5 doublings, model-specific) | 0.0722 | 0.963 | 0.0279 | 2.48 | 2.45
in vitro model: cholesterol 0.05 mM, time point: constant (~7 days, model-specific) | 0.0953 | 0.655 | -0.0786 | 1.31 | –
in vitro model: cholesterol 0.05 mM, time point: terminal (~4-5 doublings, model-specific) | 0.0868 | 0.899 | -0.194 | 1.53 | 0.957
in vitro model: cholesterol-high 0.2 mM, time point: constant (~7 days, model-specific) | 0.0449 | 0.872 | -0.204 | 0.405 | –
in vitro model: cholesterol-high 0.2 mM, time point: terminal (~4-5 doublings, model-specific) | 0.0391 | 0.977 | -0.604 | 0.794 | 0.324
in vitro model: dormancy (butyrate + nitrate, low O2), time point: constant (~7 days, model-specific) | 0.066 | 0.857 | 0.266 | 2.35 | 2.04
in vitro model: dormancy (butyrate + nitrate, low O2), time point: terminal (~4-5 doublings, model-specific) | 0.0408 | 0.974 | -0.0694 | 2.21 | 2.12
in vitro model: standard 7H9 glycerol, time point: constant = terminal | 0.0661 | 0.893 | 0.151 | 5.01 | 3.36
in vitro model: valerate, time point: constant (~7 days, model-specific) | 0.0615 | 0.863 | 0.000666 | 3.28 | –
in vitro model: valerate, time point: terminal (~4-5 doublings, model-specific) | 0.0349 | 0.939 | 0.0355 | 3.03 | 1.97

NNC(=O)c1ccncc1 [isoniazid] + O=[N+]([O-])c1cn2c(n1)OC[C@@H](OCc1ccc(OC(F)(F)F)cc1)C2 [pretomanid] + NC(=O)c1cnccn1 [pyrazinamide]
Conditions | AUC25, [5] | Einf, [3] | GRinf, [1] | total FIC50, [2] | total FIC90, [4]
in vitro model: acidic pH 5.7, time point: constant (~7 days, model-specific) | 0.0986 | 0.815 | -0.16 | -0.198 | –
in vitro model: acidic pH 5.7, time point: terminal (~4-5 doublings, model-specific) | 0.0871 | 0.976 | -0.481 | -0.0964 | -0.184
in vitro model: intracellular J774, time point: constant = terminal | – | 1 | -0.492 | – | 0.732

Conditions | AUC25, [5] | Einf, [3] | GRinf, [1] | total FIC50, [2] | total FIC90, [4]
in vitro model: butyrate, time point: constant (~7 days, model-specific) | 0.0971 | 0.946 | -0.0723 | 0.158 | 0.768
in vitro model: butyrate, time point: terminal (~4-5 doublings, model-specific) | 0.0657 | 0.972 | -0.0263 | 0.227 | 0.423
in vitro model: cholesterol 0.05 mM, time point: constant (~7 days, model-specific) | 0.106 | 0.696 | -0.21 | – | –
in vitro model: cholesterol 0.05 mM, time point: terminal (~4-5 doublings, model-specific) | 0.0922 | 0.924 | -0.353 | 5.94 | –
in vitro model: cholesterol-high 0.2 mM, time point: constant (~7 days, model-specific) | 0.0717 | 0.874 | -0.172 | 0.524 | –
in vitro model: cholesterol-high 0.2 mM, time point: terminal (~4-5 doublings, model-specific) | 0.0681 | 1 | -0.653 | 0.832 | 0.548
in vitro model: dormancy (butyrate + nitrate, low O2), time point: constant (~7 days, model-specific) | 0.0747 | 0.882 | 0.238 | -0.215 | -0.286
in vitro model: dormancy (butyrate + nitrate, low O2), time point: terminal (~4-5 doublings, model-specific) | 0.0455 | 0.984 | -0.172 | -0.137 | -0.122
in vitro model: standard 7H9 glycerol, time point: constant = terminal | 0.0648 | 0.923 | 0.0829 | 0.311 | –
in vitro model: valerate, time point: constant (~7 days, model-specific) | 0.115 | 0.888 | -0.0645 | -0.24 | –
in vitro model: valerate, time point: terminal (~4-5 doublings, model-specific) | 0.0719 | 0.922 | 0.077 | 0.0468 | 0.0214

CC(=O)NC[C@H]1CN(c2ccc(N3CCOCC3)c(F)c2)C(=O)O1 [linezolid] + CO[C@H]1/C=C/O[C@@]2(C)Oc3c(C)c(O)c4c(O)c(c(/C=N/N5CCN(C6CCCC6)CC5)c(O)c4c3C2=O)NC(=O)/C(C)=C\C=C\[C@H](C)[C@H](O)[C@@H](C)[C@@H](O)[C@@H](C)[C@H](OC(C)=O)[C@@H]1C [rifapentine] + CO[C@H]1/C=C/O[C@@]2(C)Oc3c(C)c(O)c4c(O)c(c(/C=N/N5CCN(C)CC5)c(O)c4c3C2=O)NC(=O)/C(C)=C\C=C\[C@H](C)[C@H](O)[C@@H](C)[C@@H](O)[C@@H](C)[C@H](OC(C)=O)[C@@H]1C [rifampicin]
Conditions | AUC25, [5] | Einf, [3] | GRinf, [1] | total FIC50, [2] | total FIC90, [4]
in vitro model: acidic pH 5.7, time point: constant (~7 days, model-specific) | 0.0833 | 0.893 | -0.162 | 0.407 | –
in vitro model: acidic pH 5.7, time point: terminal (~4-5 doublings, model-specific) | 0.0709 | 0.979 | -0.204 | 0.327 | 0.0907
in vitro model: intracellular J774, time point: constant = terminal | – | 0.93 | -0.12 | – | -0.258

Conditions | AUC25, [5] | Einf, [3] | GRinf, [1] | total FIC50, [2] | total FIC90, [4]
in vitro model: butyrate, time point: constant (~7 days, model-specific) | 0.0767 | 0.869 | 0.14 | 0.125 | –
in vitro model: butyrate, time point: terminal (~4-5 doublings, model-specific) | 0.0594 | 0.933 | 0.106 | 0.0289 | -0.462
in vitro model: cholesterol 0.05 mM, time point: constant (~7 days, model-specific) | 0.147 | 0.654 | -0.259 | 0.106 | –
in vitro model: cholesterol 0.05 mM, time point: terminal (~4-5 doublings, model-specific) | 0.127 | 0.909 | -0.305 | -0.0658 | 0.0643
in vitro model: cholesterol-high 0.2 mM, time point: constant (~7 days, model-specific) | 0.104 | 0.934 | -0.348 | 0.114 | 0.179
in vitro model: cholesterol-high 0.2 mM, time point: terminal (~4-5 doublings, model-specific) | 0.0979 | 1 | -0.881 | 0.344 | 0.213
in vitro model: dormancy (butyrate + nitrate, low O2), time point: constant (~7 days, model-specific) | 0.0711 | 0.884 | 0.158 | 0.564 | 0.837
in vitro model: dormancy (butyrate + nitrate, low O2), time point: terminal (~4-5 doublings, model-specific) | 0.0539 | 0.965 | -0.00168 | -0.00521 | 0.318
in vitro model: standard 7H9 glycerol, time point: constant = terminal | 0.0512 | 0.879 | 0.155 | 0.208 | –
in vitro model: valerate, time point: constant (~7 days, model-specific) | 0.0508 | 0.862 | 0.0506 | 0.124 | –
in vitro model: valerate, time point: terminal (~4-5 doublings, model-specific) | 0.029 | 0.933 | 0.0203 | 0.039 | -0.378
